These results are taken from ChEMBL document CHEMBL4613277, “Improving the Potency of N-Aryl-2,5-dimethylpyrroles against Multidrug-Resistant and Intracellular Mycobacteria” (ACS Med Chem Lett, 2020).

Series [1] deals with Mycobacterium tuberculosis. Description: Antimycobacterial activity against Mycobacterium tuberculosis H37Rv assessed as reduction in bacterial growth incubated for 7 days by resazurin based assay. Format: functional. The settings on record: 168 h. On the technique in general: The colour change of resazurin is a common sign of viable cells or microbes.
Series [2] concerns Mycobacterium tuberculosis. Description: Antimycobacterial activity against Mycobacterium tuberculosis H37Rv infected in mouse J774.1 cells assessed as reduction in bacterial colony at 1 to 10 times MIC incubated for 72 hrs by colony counting method. Format: functional, organism-based.
The subject of series [3] is Mycobacterium tuberculosis. Description: Bacteriostatic activity against Mycobacterium tuberculosis H37Rv assessed as reduction in bacterial growth at 0.07 ug/ml incubated for 3 to 4 weeks by time kill assay. In kind it is functional, organism-based.
The subject of series [4] is Mycobacterium tuberculosis. Description: Bactericidal activity against Mycobacterium tuberculosis H37Rv assessed as reduction in bacterial growth at 0.35 ug/ml incubated for 3 to 4 weeks by time kill assay. In kind it is functional, organism-based.
A short description of series [5]: Selectivity index, ratio of GI50 for mouse Macrophage cells to MIC for Mycobacterium tuberculosis H37Rv. Format: toxicity.
Series [6] in a line: Cytotoxicity against mouse macrophage cells assessed as growth inhibition incubated for 48 hrs by resazurin based assay. In kind it is cell-based.
Series [7] is described as follows: Acute toxicity in Galleria mellonella wax moth larve assessed as mortality by measuring melanization at 12 mg/kg observed for 5 days. Format: organism-based. The settings on record: in vivo, 120 h.
Series [8] is described as follows: Acute toxicity in Galleria mellonella wax moth larve assessed as adverse effect at 12 mg/kg observed for 5 days. Format: organism-based. Particulars: in vivo, 120 h.
Series [9] has as its system Mycobacterium tuberculosis. Description: Bacteriostatic activity against Mycobacterium tuberculosis H37Rv assessed as reduction in bacterial growth at 0.32 ug/ml incubated for 3 to 4 weeks by time kill assay. In kind it is functional, organism-based.
Series [10] concerns Mycolicibacterium aurum. Briefly: Antimycobacterial activity against Mycobacterium aurum assessed as reduction in bacterial growth incubated for 48 hrs by HT-SPOTi assay. In kind it is functional.
Series [11] relates to Mycolicibacterium aurum. Description: Antimycobacterial activity against Mycobacterium aurum infected in mouse RAW264.7 cells assessed as reduction in bacterial growth incubated for 48 hrs by HT-SPOTi assay. Format: functional.

Structures are written as SMILES. Converted amounts (≈) assume the structure as drawn. The source made the active and inactive calls. The rule behind the calls is not given here.

A word on the MIC: it is the least concentration at which growth counts as inhibited. Regarding `Clc1ccc2nc(CNCc3ccccc3)cn2c1`, the MIC in series [1] was greater than 25 µg/mL.

For the compound `Cc1nn(-c2ccc(Cl)cc2)c(C)c1CNC1CCCCC1`, in [1], the MIC is greater than 25 µg/mL.

For the compound `Clc1ccc(-n2cc(CNC3CCCCC3)nn2)cc1`, the MIC in [1] is greater than 25 µg/mL.

Take `NNC(=O)c1ccncc1` [ISONIAZID]: the MIC in series [1] is 0.24 µg/mL (≈ 1.75 µM). Further, the inhibition entry in [2] was “Active”.

As for `Cc1nn(-c2ccccc2)c(C)c1CNC1CCCCC1`, in series [1], the MIC is greater than 25 µg/mL.

For `Clc1ccc2nc(CNC3CCCCC3)cn2c1`, the MIC in series [1] is greater than 25 µg/mL.

In the case of `COc1c(N2C[C@@H]3CCCN[C@@H]3C2)c(F)cc2c(=O)c(C(=O)O)cn(C3CC3)c12`, the outcome in series [3] was inactive. In addition, in [4], the outcome was Active. Further, the inhibition entry in series [2] was “Active”.

For orientation: GI50 means the concentration giving 50% growth inhibition. Regarding `Cc1cc(CNC2CCCCC2)c(C)n1-c1ccc(C(C)C)cc1`, the selectivity ratio in [5] was in the range of 23 to 48. Moreover, the GI50 at 48 h in series [6] was determined as 5.8 µg/mL (≈ 17.9 µM). In [1], the MIC was in the range of 0.12 to 0.25 µg/mL (≈ 0.37 to 0.77 µM).

On to `CO[C@H]1/C=C/O[C@@]2(C)Oc3c(C)c(O)c4c(O)c(c(/C=N/N5CCN(C)CC5)c(O)c4c3C2=O)NC(=O)/C(C)=C\C=C\[C@H](C)[C@H](O)[C@@H](C)[C@@H](O)[C@@H](C)[C@H](OC(C)=O)[C@@H]1C` [RIFAMPIN], for which the MIC in [1] was greater than 0.06 µg/mL.

`Cc1nn(-c2ccc(Cl)cc2)c(C)c1CNCc1ccccc1`: the MIC in series [1] was greater than 25 µg/mL.

Take `Cc1cc(CNCC2CCCCC2)c(C)n1-c1ccc(Cl)cc1`: the Activity result in [7] and in [8] was “Non-Toxic” each time. Further, the selectivity ratio in series [5] was in the range of 39 to 195. Further, the GI50 at 48 h in [6] amounted to 11.7 µg/mL (≈ 35.4 µM). The MIC in [1] was 0.06 to 0.3 µg/mL (≈ 0.181 to 0.907 µM); in series [10], 3.9 µg/mL (≈ 11.8 µM); in series [11], 1.95 µg/mL (≈ 5.89 µM). Besides, the outcome in series [9] was Active. In series [2], the inhibition entry was “Active”.

With `Clc1ccc(-n2cc(CNCc3ccccc3)nn2)cc1`, the MIC in series [1] was greater than 25 µg/mL.

As to `Cc1cc(CN[C@H]2C[C@@H]3CC[C@H]2C3)c(C)n1-c1ccc(Cl)cc1`, in series [5], the selectivity ratio was 47 to 94. Further, in series [6], the GI50 at 48 h came out at 23.4 µg/mL (≈ 71.1 µM). For the same compound, the MIC in series [1] was in the range of 0.25 to 0.5 µg/mL (≈ 0.76 to 1.52 µM).

As for `COc1ccc(-n2c(C)cc(CNC3CCCCC3)c2C)cc1`, the selectivity ratio in [5] fell in the range of 16 to 32. The GI50 at 48 h in [6] was determined as 3.9 µg/mL (≈ 12.5 µM). For the same compound, the MIC in series [1] was 0.12 to 0.25 µg/mL (≈ 0.384 to 0.8 µM).
